Reference: PMC12373846, “Hemoglobin as a pseudoperoxidase and drug target for oxidative stress-related diseases” (Signal Transduction and Targeted Therapy, 2025)
Several values for one entry are separate records, joined by “and”; a condition that tells them apart may be missing. Equal values may be shown once. Read-outs that look alike come from different tables or passages of the source.

Experiments:
[1] = tested on: mice; experiment: Laser speckle contrast imaging of cerebral perfusion; type: in vivo, mouse
Method: To assess cerebral perfusion, mice were anesthetized with isoflurane (2-3% in 100% O2, maintained at 1.0%) and placed on a heating pad to maintain body temperature. Following scalp incision, the skull surface was exposed without thinning or craniotomy. LSCI was performed using a laser speckle imaging system (RWD Life Science), acquiring frames at 30 Hz. KDS12025 (0.1, 1, or 10 mg/kg/day) or saline was administered via retro-orbital injection immediately prior to imaging. Cerebral blood perfusion and vessel diameter (pipe diameter) were quantified using RWD’s proprietary LSCI analysis software. All imaging was conducted under identical illumination and acquisition parameters.

[2] = target: T1, 5-HT1A (h) (agonist radioligand) (Homo sapiens, UniProt P08908); experiment: SafetyScreen87 panel; settings: 1.0E-06 M; mean; read-out: % Inhibition of Control Specific Binding (1st, 2nd, Mean)
T1 construct: purchased DiscoverX KINOMEscan scanEDGE; Eurofins Cerep SafetyScreen87
Method: (§1) The possibility of KDS12025 on kinase off-target, the KINOMEscan panel of scanEDGE assay was conducted in DiscoverX (CA, USA) using a site-directed competition binding with the test compounds. The assay results are given in Supplementary Table 4 and experimental information is available on the DiscoverX web page (www.discoverx.com). Moreover, the Delta SafetyScreen87 panel assay was conducted in Eurofins Discovery (Cerep, France). The assay results are given in Supplementary Table 5 and experimental information is available on the DiscoverX web page (https://www.eurofinsdiscoveryservices.com).

[3] = target: T2, 5-HT1B (h) (antagonist radioligand) (Homo sapiens, UniProt P28222); experiment: SafetyScreen87 panel; settings: 1.0E-06 M; mean; read-out: % Inhibition of Control Specific Binding (1st, 2nd, Mean)
T2 construct: purchased DiscoverX KINOMEscan scanEDGE; Eurofins Cerep SafetyScreen87
Method: as §1

[4] = target: T3, B2 (h) (agonist radioligand) (Homo sapiens, UniProt P30411); experiment: SafetyScreen87 panel
T3 construct: purchased DiscoverX KINOMEscan scanEDGE; Eurofins Cerep SafetyScreen87
Method: as §1

[5] = tested on: BZD (central) (agonist radioligand); experiment: SafetyScreen87 panel; settings: 1.0E-06 M, read-out: % Inhibition of Control Specific Binding (1st, 2nd, Mean)
Method: as §1

[6] = target: T4, CB1 (h) (agonist radioligand) (Homo sapiens, UniProt P21554); experiment: SafetyScreen87 panel; settings: 1.0E-06 M, read-out: % Inhibition of Control Specific Binding (1st, 2nd, Mean)
T4 construct: purchased DiscoverX KINOMEscan scanEDGE; Eurofins Cerep SafetyScreen87
Method: as §1

[7] = target: T5, CB2 (h) (agonist radioligand) (Homo sapiens, UniProt P34972); experiment: SafetyScreen87 panel; settings: 1.0E-06 M, read-out: % Inhibition of Control Specific Binding (1st, 2nd, Mean)
T5 construct: purchased DiscoverX KINOMEscan scanEDGE; Eurofins Cerep SafetyScreen87
T5 sequence (P34972 whole entry): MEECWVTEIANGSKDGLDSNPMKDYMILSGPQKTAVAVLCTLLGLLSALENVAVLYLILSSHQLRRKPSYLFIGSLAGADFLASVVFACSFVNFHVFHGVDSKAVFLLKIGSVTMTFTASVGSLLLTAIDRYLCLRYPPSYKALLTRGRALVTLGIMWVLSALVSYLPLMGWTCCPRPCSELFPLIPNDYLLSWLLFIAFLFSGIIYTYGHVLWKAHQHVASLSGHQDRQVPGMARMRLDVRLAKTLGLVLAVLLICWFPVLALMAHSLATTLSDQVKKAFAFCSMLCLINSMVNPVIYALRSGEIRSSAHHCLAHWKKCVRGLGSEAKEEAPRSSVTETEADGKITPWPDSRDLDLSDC
Method: as §1

[8] = target: T6, CXCR2 (IL-8B) (h) (agonist radioligand) (Homo sapiens, UniProt P25025); experiment: SafetyScreen87 panel
T6 construct: purchased DiscoverX KINOMEscan scanEDGE; Eurofins Cerep SafetyScreen87
Method: as §1

[9] = tested on: Ca2+ channel (L, diltiazem site) (benzothiazepines) (antagonist radioligand); experiment: SafetyScreen87 panel; settings: 1.0E-06 M, read-out: % Inhibition of Control Specific Binding (1st, 2nd, Mean)
Method: as §1

[10] = tested on: Ca2+ channel (L, verapamil site) (phenylalkylamine) (antagonist radioligand); experiment: SafetyScreen87 panel; settings: 1.0E-06 M, read-out: % Inhibition of Control Specific Binding (1st, 2nd, Mean)
Method: as §1

[11] = target: T7, Ca2+ channel (N) (antagonist radioligand) (Rattus norvegicus, UniProt Q02294); experiment: SafetyScreen87 panel
T7 construct: Eurofins Discovery (Cerep, France) SafetyScreen87 panel
Method: as §1

[12] = tested on: Cl- channel (GABA-gated) (TBOB site) (antagonist radioligand); experiment: SafetyScreen87 panel; settings: 1.0E-06 M, read-out: % Inhibition of Control Specific Binding (1st, 2nd, Mean)
Method: as §1

[13] = target: T8, GABAA1 (h) (alpha 1,beta 2,gamma 2) (agonist radioligand) (Homo sapiens, UniProt P14867+P47870); experiment: SafetyScreen87 panel; settings: 1.0E-06 M, read-out: % Inhibition of Control Specific Binding (1st, 2nd, Mean)
T8 construct: purchased DiscoverX KINOMEscan scanEDGE; Eurofins Cerep SafetyScreen87
T8 sequence (P14867 28-456): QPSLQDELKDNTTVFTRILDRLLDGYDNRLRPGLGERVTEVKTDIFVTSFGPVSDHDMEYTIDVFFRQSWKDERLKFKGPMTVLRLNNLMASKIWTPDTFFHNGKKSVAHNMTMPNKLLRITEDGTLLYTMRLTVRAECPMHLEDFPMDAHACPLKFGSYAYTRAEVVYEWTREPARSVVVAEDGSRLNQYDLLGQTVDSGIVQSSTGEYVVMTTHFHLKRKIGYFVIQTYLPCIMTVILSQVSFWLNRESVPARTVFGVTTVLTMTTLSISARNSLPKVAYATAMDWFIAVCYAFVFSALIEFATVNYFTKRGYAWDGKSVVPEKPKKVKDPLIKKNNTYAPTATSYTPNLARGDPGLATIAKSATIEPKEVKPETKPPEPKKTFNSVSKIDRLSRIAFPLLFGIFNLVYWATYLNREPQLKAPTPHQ
T8 sequence (P47870 25-512 limits assumed): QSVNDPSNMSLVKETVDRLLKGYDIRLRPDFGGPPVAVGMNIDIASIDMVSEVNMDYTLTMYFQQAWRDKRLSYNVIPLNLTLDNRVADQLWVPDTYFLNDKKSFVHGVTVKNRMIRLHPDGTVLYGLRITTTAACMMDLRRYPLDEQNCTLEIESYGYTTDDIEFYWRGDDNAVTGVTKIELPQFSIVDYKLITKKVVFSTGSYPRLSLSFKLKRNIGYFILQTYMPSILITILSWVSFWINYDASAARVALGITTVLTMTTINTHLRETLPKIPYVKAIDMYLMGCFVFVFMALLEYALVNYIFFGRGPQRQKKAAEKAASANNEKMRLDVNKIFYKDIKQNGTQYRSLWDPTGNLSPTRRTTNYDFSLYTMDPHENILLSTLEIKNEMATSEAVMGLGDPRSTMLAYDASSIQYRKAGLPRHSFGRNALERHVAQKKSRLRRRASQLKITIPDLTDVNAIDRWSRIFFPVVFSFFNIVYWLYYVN
T8 sequence (P18507 40-467 partner limits assumed): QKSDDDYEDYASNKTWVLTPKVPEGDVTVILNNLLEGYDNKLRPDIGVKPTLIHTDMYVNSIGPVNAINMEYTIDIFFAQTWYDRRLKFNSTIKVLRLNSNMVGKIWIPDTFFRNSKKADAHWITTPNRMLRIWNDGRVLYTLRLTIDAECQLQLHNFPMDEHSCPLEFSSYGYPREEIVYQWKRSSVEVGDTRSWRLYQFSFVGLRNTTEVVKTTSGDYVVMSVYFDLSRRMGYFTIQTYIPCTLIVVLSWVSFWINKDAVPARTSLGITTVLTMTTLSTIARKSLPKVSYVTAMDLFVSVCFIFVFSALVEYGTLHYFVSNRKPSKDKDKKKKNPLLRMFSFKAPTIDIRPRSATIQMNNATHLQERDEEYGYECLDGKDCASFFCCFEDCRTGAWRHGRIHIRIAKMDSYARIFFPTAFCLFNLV
Method: as §1

[14] = target: T9, H1 (h) (antagonist radioligand) (Homo sapiens, UniProt P35367); experiment: SafetyScreen87 panel; settings: 1.0E-06 M; mean; read-out: % Inhibition of Control Specific Binding (1st, 2nd, Mean)
T9 construct: purchased DiscoverX KINOMEscan scanEDGE; Eurofins Cerep SafetyScreen87
Method: as §1

[15] = target: T10, M3 (h) (antagonist radioligand) (Homo sapiens, UniProt P20309); experiment: SafetyScreen87 panel; settings: 1.0E-06 M; mean; read-out: % Inhibition of Control Specific Binding (1st, 2nd, Mean)
T10 construct: purchased DiscoverX KINOMEscan scanEDGE; Eurofins Cerep SafetyScreen87
Method: as §1

[16] = target: T11, MAO-A (antagonist radioligand) (Rattus norvegicus, UniProt P21396); experiment: SafetyScreen87 panel; settings: 1.0E-06 M; mean; read-out: % Inhibition of Control Specific Binding (1st, 2nd, Mean)
T11 construct: purchased DiscoverX KINOMEscan scanEDGE; Eurofins Cerep SafetyScreen87
Method: as §1

[17] = tested on: NMDA (antagonist radioligand); experiment: SafetyScreen87 panel; settings: 1.0E-06 M, read-out: % Inhibition of Control Specific Binding (1st, 2nd, Mean)
Method: as §1

[18] = tested on: Na+ channel (site 2) (antagonist radioligand); experiment: SafetyScreen87 panel; settings: 1.0E-06 M, read-out: % Inhibition of Control Specific Binding (1st, 2nd, Mean)
Method: as §1

[19] = target: T12, PPARgamma (h) (agonist radioligand) (Homo sapiens, UniProt P37231); experiment: SafetyScreen87 panel; settings: read-out: % Inhibition of Control Specific Binding (1st, 2nd, Mean); 1.0E-06 M
T12 construct: purchased DiscoverX KINOMEscan scanEDGE; Eurofins Cerep SafetyScreen87
Method: as §1

[20] = target: T13, RARalpha (h) (agonist radioligand) (Homo sapiens, UniProt P10276); experiment: SafetyScreen87 panel; settings: 1.0E-06 M; read-out: % Inhibition of Control Specific Binding (1st, 2nd, Mean)
T13 construct: purchased DiscoverX KINOMEscan scanEDGE; Eurofins Cerep SafetyScreen87
T13 sequence (P10276 whole entry): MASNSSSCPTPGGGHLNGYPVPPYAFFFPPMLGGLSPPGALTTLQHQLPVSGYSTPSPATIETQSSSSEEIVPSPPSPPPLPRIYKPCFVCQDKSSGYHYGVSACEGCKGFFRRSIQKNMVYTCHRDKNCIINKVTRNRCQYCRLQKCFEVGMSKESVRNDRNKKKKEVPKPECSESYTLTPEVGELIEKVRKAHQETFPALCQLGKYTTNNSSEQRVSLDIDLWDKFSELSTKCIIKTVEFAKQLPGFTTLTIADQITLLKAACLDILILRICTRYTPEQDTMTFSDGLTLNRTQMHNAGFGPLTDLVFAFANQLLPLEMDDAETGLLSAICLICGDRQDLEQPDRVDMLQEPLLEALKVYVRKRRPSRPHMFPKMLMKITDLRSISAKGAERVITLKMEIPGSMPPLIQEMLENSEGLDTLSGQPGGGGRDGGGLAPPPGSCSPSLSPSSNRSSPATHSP
Method: as §1

[21] = target: T14, Y1 (h) (agonist radioligand) (Homo sapiens, UniProt P25929); experiment: SafetyScreen87 panel; settings: read-out: % Inhibition of Control Specific Binding (1st, 2nd, Mean); 1.0E-06 M
T14 construct: purchased DiscoverX KINOMEscan scanEDGE; Eurofins Cerep SafetyScreen87
Method: as §1

[22] = target: T15, alpha 1A (h) (antagonist radioligand) (Homo sapiens, UniProt P35348); experiment: SafetyScreen87 panel; settings: 1.0E-06 M, read-out: % Inhibition of Control Specific Binding (1st, 2nd, Mean)
T15 construct: purchased DiscoverX KINOMEscan scanEDGE; Eurofins Cerep SafetyScreen87
T15 sequence (P35348 whole entry): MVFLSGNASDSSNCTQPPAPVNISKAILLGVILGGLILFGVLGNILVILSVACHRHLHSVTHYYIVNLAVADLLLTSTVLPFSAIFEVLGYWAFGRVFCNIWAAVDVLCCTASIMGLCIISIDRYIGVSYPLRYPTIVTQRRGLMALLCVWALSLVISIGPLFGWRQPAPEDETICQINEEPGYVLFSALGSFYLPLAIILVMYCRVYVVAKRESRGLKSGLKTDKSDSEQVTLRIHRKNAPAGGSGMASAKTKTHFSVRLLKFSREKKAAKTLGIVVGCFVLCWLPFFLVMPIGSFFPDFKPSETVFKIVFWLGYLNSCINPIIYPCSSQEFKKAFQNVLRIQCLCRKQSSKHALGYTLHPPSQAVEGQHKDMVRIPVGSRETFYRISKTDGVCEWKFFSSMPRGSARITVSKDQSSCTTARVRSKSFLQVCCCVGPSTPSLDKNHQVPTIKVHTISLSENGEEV
Method: as §1

[23] = target: T16, alpha 2A (h) (antagonist radioligand) (Homo sapiens, UniProt P08913); experiment: SafetyScreen87 panel; settings: 1.0E-06 M, read-out: % Inhibition of Control Specific Binding (1st, 2nd, Mean)
T16 construct: purchased DiscoverX KINOMEscan scanEDGE; Eurofins Cerep SafetyScreen87
T16 sequence (P08913 whole entry): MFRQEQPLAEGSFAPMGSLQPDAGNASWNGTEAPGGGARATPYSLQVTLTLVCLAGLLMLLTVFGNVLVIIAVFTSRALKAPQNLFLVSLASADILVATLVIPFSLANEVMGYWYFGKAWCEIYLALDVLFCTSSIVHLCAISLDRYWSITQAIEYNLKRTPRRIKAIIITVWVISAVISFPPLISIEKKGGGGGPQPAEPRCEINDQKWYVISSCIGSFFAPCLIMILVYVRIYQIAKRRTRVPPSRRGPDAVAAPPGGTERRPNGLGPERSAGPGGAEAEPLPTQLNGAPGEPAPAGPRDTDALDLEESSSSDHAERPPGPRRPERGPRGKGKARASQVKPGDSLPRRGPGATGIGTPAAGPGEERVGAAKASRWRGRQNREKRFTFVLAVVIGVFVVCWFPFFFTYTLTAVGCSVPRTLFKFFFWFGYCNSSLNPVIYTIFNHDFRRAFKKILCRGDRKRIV
Method: as §1

[24] = target: T17, beta 1 (h) (agonist radioligand) (Homo sapiens, UniProt P08588); experiment: SafetyScreen87 panel; settings: 1.0E-06 M, read-out: % Inhibition of Control Specific Binding (1st, 2nd, Mean)
T17 construct: purchased DiscoverX KINOMEscan scanEDGE; Eurofins Cerep SafetyScreen87
T17 sequence (P08588 whole entry): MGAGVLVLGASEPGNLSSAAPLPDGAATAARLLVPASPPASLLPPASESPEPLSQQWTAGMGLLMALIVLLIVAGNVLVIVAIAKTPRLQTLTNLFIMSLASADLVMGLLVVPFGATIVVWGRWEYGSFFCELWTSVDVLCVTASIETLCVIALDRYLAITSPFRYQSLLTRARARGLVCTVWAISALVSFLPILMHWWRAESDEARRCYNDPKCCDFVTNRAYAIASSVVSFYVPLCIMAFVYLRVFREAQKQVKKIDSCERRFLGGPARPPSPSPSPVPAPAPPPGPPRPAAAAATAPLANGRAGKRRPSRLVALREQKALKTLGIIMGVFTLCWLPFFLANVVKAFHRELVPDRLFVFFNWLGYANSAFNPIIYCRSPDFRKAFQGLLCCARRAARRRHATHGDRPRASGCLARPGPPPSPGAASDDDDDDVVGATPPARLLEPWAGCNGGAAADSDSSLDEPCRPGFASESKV
Method: as §1

[25] = tested on: kainate (agonist radioligand); experiment: SafetyScreen87 panel; settings: 1.0E-06 M, read-out: % Inhibition of Control Specific Binding (1st, 2nd, Mean)
Method: as §1

[26] = target: T18, mGluR5 (h) (agonist radioligand) (Homo sapiens, UniProt P41594); experiment: SafetyScreen87 panel; settings: 1.0E-06 M, read-out: % Inhibition of Control Specific Binding (1st, 2nd, Mean)
T18 construct: purchased DiscoverX KINOMEscan scanEDGE; Eurofins Cerep SafetyScreen87
T18 sequence (P41594 21-1212): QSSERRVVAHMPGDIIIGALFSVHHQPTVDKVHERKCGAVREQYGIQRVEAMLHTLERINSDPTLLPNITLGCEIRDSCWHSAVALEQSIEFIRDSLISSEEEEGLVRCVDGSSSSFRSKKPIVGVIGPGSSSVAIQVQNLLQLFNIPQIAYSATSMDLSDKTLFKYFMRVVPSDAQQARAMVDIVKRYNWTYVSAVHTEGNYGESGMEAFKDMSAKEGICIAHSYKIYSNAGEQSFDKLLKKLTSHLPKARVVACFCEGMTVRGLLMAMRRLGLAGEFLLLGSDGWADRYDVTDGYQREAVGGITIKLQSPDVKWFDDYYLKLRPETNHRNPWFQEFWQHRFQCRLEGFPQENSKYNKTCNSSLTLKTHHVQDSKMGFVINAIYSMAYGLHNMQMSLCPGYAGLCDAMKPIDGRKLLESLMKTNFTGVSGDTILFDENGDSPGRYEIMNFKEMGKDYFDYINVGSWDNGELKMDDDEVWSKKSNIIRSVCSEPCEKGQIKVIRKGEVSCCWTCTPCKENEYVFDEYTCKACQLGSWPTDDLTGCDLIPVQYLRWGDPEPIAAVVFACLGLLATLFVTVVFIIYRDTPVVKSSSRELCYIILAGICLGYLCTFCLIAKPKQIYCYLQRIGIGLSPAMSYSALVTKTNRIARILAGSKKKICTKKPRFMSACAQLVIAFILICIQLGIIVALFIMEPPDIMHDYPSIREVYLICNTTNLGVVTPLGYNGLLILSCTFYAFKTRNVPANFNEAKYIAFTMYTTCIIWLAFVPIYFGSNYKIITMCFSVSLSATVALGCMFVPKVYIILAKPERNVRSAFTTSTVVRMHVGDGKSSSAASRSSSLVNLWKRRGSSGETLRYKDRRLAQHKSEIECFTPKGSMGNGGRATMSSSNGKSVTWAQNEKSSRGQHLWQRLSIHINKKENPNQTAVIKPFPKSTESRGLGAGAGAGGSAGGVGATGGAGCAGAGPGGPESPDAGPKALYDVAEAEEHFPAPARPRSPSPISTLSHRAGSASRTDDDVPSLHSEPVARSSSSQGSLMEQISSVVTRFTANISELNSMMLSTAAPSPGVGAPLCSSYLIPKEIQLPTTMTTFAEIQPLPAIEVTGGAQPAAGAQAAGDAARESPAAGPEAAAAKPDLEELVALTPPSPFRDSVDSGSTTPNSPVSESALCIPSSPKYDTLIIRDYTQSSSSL
Method: as §1

[27] = target: T19, mu (MOP) (h) (agonist radioligand) (Homo sapiens, UniProt P35372); experiment: SafetyScreen87 panel; settings: 1.0E-06 M; mean; read-out: % Inhibition of Control Specific Binding (1st, 2nd, Mean)
T19 construct: purchased DiscoverX KINOMEscan scanEDGE; Eurofins Cerep SafetyScreen87
Method: as §1

[28] = 1.0E-06 M; read-out: % Inhibition of Control Specific Binding (1st, 2nd, Mean)
[29] = read-out: % Inhibition of Control Specific Binding (1st, 2nd, Mean); 1.0E-06 M

For CNc1ccc(NCCc2ccccc2OC)cc1.Cl [KDS12025, N^1-(2-methoxyphenethyl)-N^4-methylbenzene-1,4-diamine hydrochloride salt], the “overall cerebral perfusion (LSCI, Fig. S8f)” value (“overall cerebral perfusion” below) ([1]; 0.1 mpk retro-orbital) was 1169±10.7, the “vessel diameter (pipe diameter, Fig. S8g)” value (“vessel diameter” below) ([1]; 0.1 mpk retro-orbital) was 193±3.8 and the “overall cerebral perfusion” value ([1]; 1 mpk retro-orbital) was 1205±10.4. For the same compound, the “vessel diameter” value ([1]; 1 mpk retro-orbital) was 200±2.3, the “overall cerebral perfusion” value ([1]; 10 mpk retro-orbital) was 1190±7.4 and the “vessel diameter” value ([1]; 10 mpk retro-orbital) was 203±3.9. For the same compound, the activity [2] was 62.4%, the activity [3] was 90.8% and the activity [4, 28] was 99.4%. For the same compound, the activity [4, 29] was 104%, the activity ([5]; mean) was 99.5% and the activity [5] was 102% and 96.6%. The activity ([6]; mean) was 80%, the activity [6] was 81.7% and 78.4% and the activity ([7]; mean) was 84.6%. For the same compound, the activity [7] was 78.4% and 90.8%, the activity [8, 28] was 83.3% and the activity [8, 29] was 91.8%. For the same compound, the activity ([9]; mean) was 84.9%, the activity [9] was 88.1% and 81.7% and the activity ([10]; mean) was 98%. The activity [10] was 101% and 95.5%, the activity [11, 28] was 118% and the activity [11, 29] was 104%. For the same compound, the activity ([12]; mean) was 96.4%, the activity [12] was 104% and 89% and the activity ([13]; mean) was 95.1%. For the same compound, the activity [13] was 92.4% and 97.8%, the activity [14] was 88.2% and the activity [15] was 85.5%. The activity [16] was 100%, the activity ([17]; mean) was 98.7% and the activity [17] was 97.8% and 99.6%. The activity ([18]; mean) was 74.5%, the activity [18] was 83.6% and 65.5% and the activity [19] was 94.7%. The activity [20] was 105%, the activity [21] was 104% and the activity ([22]; mean) was 87.1%. The activity [22] was 87.6% and 86.5%, the activity ([23]; mean) was 86.1% and the activity [23] was 86.9% and 85.4%. The activity ([24]; mean) was 90.5%, the activity [24] was 86.7% and 94.3% and the activity ([25]; mean) was 97.4%. The activity [25] was 76.8% and 118%, the activity ([26]; mean) was 115% and the activity [26] was 114% and 116%. For the same compound, the activity [27] was 84.5%.
